The test addresses Caspase-3 (Homo sapiens) (UniProt P42574). As to the kind of experiment: inhibition of recombinant caspase-3 activity – biochemical, luminescence, set 2, selectivity assay for SENP protease inhibitor project, SAR follow-up (AID 588599). The note with it: recombinant caspase-3, Z-DEVD-aminoluciferin luminescence, 60 min.
Sequence of Caspase-3 (Homo sapiens) (P42574 28-227 limits assumed): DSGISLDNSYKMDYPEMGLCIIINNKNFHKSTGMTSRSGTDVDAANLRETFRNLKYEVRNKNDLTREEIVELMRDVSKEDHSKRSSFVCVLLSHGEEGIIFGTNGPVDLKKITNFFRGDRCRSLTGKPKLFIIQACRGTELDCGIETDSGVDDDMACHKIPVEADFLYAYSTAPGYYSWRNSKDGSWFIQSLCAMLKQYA
Consider `CCCCc1ccc2nc(NC(=O)c3sccc3Cl)sc2c1`, for which the half-maximal inhibitory concentration (IC50) (commonly the point on the concentration scale where inhibition reaches its midpoint) was 1.11 µM. In the case of `Fc1ccc(/C=C/c2noc(-c3ccccc3I)n2)cc1`, the IC50 was 23.9 µM. As for `O=C(Nc1nc2ccccc2s1)c1cc2ccccc2s1`, the figure is 0.515 µM. For `Cc1cccc(-c2noc(/C=C/c3ccccc3)n2)c1` the value was 10.6 µM.

Values taken from PubChem BioAssay AID588599 (Sanford-Burnham Center for Chemical Genomics, 2011).
